Test results as given in patent US5556744A, “Methods and compositions for diagnosing and treating certain HIV infected patients” (The Trustees of the University of Pennsylvania, priority 1994, dated 1996).

What was measured:
[1] = system: maternal sera (antibodies); experiment: ELISA peptide-binding of maternal sera (Example 6); set-up: species or system human; conditions: for Number of Non-Transmitters which bound to peptide / Percent of Non-Transmitters which bound to peptide: N = 12; for Number of Transmitters which bound to peptide / Percent of Transmitters which bound to peptide: N = 4
Summary of the method: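 Third-trimester maternal sera, from HIV-1 transmitting and non-transmitting mothers, were tested by ELISA against ~16-residue peptides spanning HIV-1 external and transmembrane glycoproteins. Each serum was run with at least 40 peptides, and values are the percentage of sera binding each peptide.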

[2] = system: maternal HIV+ sera (antibodies); experiment: RIA / ELISA binding of maternal HIV+ sera to gp120 and gp41 peptides (Example 3); set-up: species or system human
Summary of the method: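 Peptides were coated at 10 μg/ml in carbonate buffer pH 9.6 and blocked with 1% BSA. Sera at 1:50 and 1:500 were incubated overnight at 4°C and detected with ¹²⁵I anti-human IgG (RIA) or HRP/TMB at OD450 (ELISA). Specific binding was taken as peptide minus no-peptide wells, scored as a ratio to normal human serum.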

[3] = Serum No. 1, Non-Transmission Group
[4] = Serum No. 2, Non-Transmission Group
[5] = Serum No. 3, Non-Transmission Group
[6] = Serum No. 4, Transmission Group
[7] = Serum No. 5, Transmission Group
[8] = Serum No. 6, Non-Transmission Group
[9] = Serum No. 7, Non-Transmission Group
[10] = Serum No. 8, Non-Transmission Group
[11] = Serum No. 9, Non-Transmission Group
[12] = Serum No. 10, Transmission Group
[13] = Serum No. 11, Non-Transmission Group
[14] = Serum No. 12, Non-Transmission Group
[15] = Serum No. 13, Transmission Group
[16] = Serum No. 14, Transmission Group
[17] = Serum No. 15, Transmission Group
[18] = Serum No. 16, Non-Transmission Group
[19] = Serum No. 17, Non-Transmission Group
[20] = Serum No. 18, Non-Transmission Group
[21] = Serum No. 19, Transmission Group
[22] = Serum No. 20, Non-Transmission Group

Sequence | Number of Non-Transmitters which bound to peptide [1] | Percent of Non-Transmitters which bound to peptide [1] [%] | Number of Transmitters which bound to peptide [1] | Percent of Transmitters which bound to peptide [1] [%] | Binding of maternal HIV+ serum to peptide (sera/NHS ratio) [2, 3] | Binding of maternal HIV+ serum to peptide (sera/NHS ratio) [2, 4] | Binding of maternal HIV+ serum to peptide (sera/NHS ratio) [2, 5] | Binding of maternal HIV+ serum to peptide (sera/NHS ratio) [2, 6] | Binding of maternal HIV+ serum to peptide (sera/NHS ratio) [2, 7] | Binding of maternal HIV+ serum to peptide (sera/NHS ratio) [2, 8] | Binding of maternal HIV+ serum to peptide (sera/NHS ratio) [2, 9] | Binding of maternal HIV+ serum to peptide (sera/NHS ratio) [2, 10] | Binding of maternal HIV+ serum to peptide (sera/NHS ratio) [2, 11] | Binding of maternal HIV+ serum to peptide (sera/NHS ratio) [2, 12] | Binding of maternal HIV+ serum to peptide (sera/NHS ratio) [2, 13] | Binding of maternal HIV+ serum to peptide (sera/NHS ratio) [2, 14] | Binding of maternal HIV+ serum to peptide (sera/NHS ratio) [2, 15] | Binding of maternal HIV+ serum to peptide (sera/NHS ratio) [2, 16] | Binding of maternal HIV+ serum to peptide (sera/NHS ratio) [2, 17] | Binding of maternal HIV+ serum to peptide (sera/NHS ratio) [2, 18] | also measured
RIQRGPGRAFVTIGK [p18p] | 3 | 25 | 0 | 0 | - (specific OD450 or cpm of sera sample binding to peptide divided by the specific OD450 or cpm of NHS sample binding to peptide, which value is less than 2) | - (specific OD450 or cpm of sera sample binding to peptide divided by the specific OD450 or cpm of NHS sample binding to peptide, which value is less than 2) | - (specific OD450 or cpm of sera sample binding to peptide divided by the specific OD450 or cpm of NHS sample binding to peptide, which value is less than 2) | - (specific OD450 or cpm of sera sample binding to peptide divided by the specific OD450 or cpm of NHS sample binding to peptide, which value is less than 2) | - (specific OD450 or cpm of sera sample binding to peptide divided by the specific OD450 or cpm of NHS sample binding to peptide, which value is less than 2) | - (specific OD450 or cpm of sera sample binding to peptide divided by the specific OD450 or cpm of NHS sample binding to peptide, which value is less than 2) | - (specific OD450 or cpm of sera sample binding to peptide divided by the specific OD450 or cpm of NHS sample binding to peptide, which value is less than 2) | - (specific OD450 or cpm of sera sample binding to peptide divided by the specific OD450 or cpm of NHS sample binding to peptide, which value is less than 2) | - (specific OD450 or cpm of sera sample binding to peptide divided by the specific OD450 or cpm of NHS sample binding to peptide, which value is less than 2) | - (specific OD450 or cpm of sera sample binding to peptide divided by the specific OD450 or cpm of NHS sample binding to peptide, which value is less than 2) | - (specific OD450 or cpm of sera sample binding to peptide divided by the specific OD450 or cpm of NHS sample binding to peptide, which value is less than 2) | ++ (which value is greater than 3) | ++ (which value is greater than 3) | ++ (which value is greater than 3) | ++ (which value is greater than 3) | + (which value is between 2 to 3) | Percentage of sera samples demonstrating binding to peptide, non-transmitter ([2]; Non-transmitter group, n = 13): 30.7%; Binding of maternal HIV+ serum to peptide (sera/NHS ratio) [2, 19]: ++ (which value is greater than 3); Binding of maternal HIV+ serum to peptide (sera/NHS ratio) [2, 20]: - (specific OD450 or cpm of sera sample binding to peptide divided by the specific OD450 or cpm of NHS sample binding to peptide, which value is less than 2); Binding of maternal HIV+ serum to peptide (sera/NHS ratio) [2, 21]: - (specific OD450 or cpm of sera sample binding to peptide divided by the specific OD450 or cpm of NHS sample binding to peptide, which value is less than 2); Binding of maternal HIV+ serum to peptide (sera/NHS ratio) [2, 22]: + (which value is between 2 to 3); Percentage of sera samples demonstrating binding to peptide, transmitter ([2]; Transmitter / transmission group, n = 7): 42.8%; Percent of the maternal serum samples that bound to the peptide ([2]; all 20 samples): 35%
FSYHRLRDLLLIVTR [Peptide 132] | 1 | 83 | 0 | 0 | + (which value is between 2 to 3) | - (specific OD450 or cpm of sera sample binding to peptide divided by the specific OD450 or cpm of NHS sample binding to peptide, which value is less than 2) | - (specific OD450 or cpm of sera sample binding to peptide divided by the specific OD450 or cpm of NHS sample binding to peptide, which value is less than 2) | - (specific OD450 or cpm of sera sample binding to peptide divided by the specific OD450 or cpm of NHS sample binding to peptide, which value is less than 2) | - (specific OD450 or cpm of sera sample binding to peptide divided by the specific OD450 or cpm of NHS sample binding to peptide, which value is less than 2) | - (specific OD450 or cpm of sera sample binding to peptide divided by the specific OD450 or cpm of NHS sample binding to peptide, which value is less than 2) | - (specific OD450 or cpm of sera sample binding to peptide divided by the specific OD450 or cpm of NHS sample binding to peptide, which value is less than 2) | - (specific OD450 or cpm of sera sample binding to peptide divided by the specific OD450 or cpm of NHS sample binding to peptide, which value is less than 2) | + (which value is between 2 to 3) | - (specific OD450 or cpm of sera sample binding to peptide divided by the specific OD450 or cpm of NHS sample binding to peptide, which value is less than 2) | - (specific OD450 or cpm of sera sample binding to peptide divided by the specific OD450 or cpm of NHS sample binding to peptide, which value is less than 2) | - (specific OD450 or cpm of sera sample binding to peptide divided by the specific OD450 or cpm of NHS sample binding to peptide, which value is less than 2) | - (specific OD450 or cpm of sera sample binding to peptide divided by the specific OD450 or cpm of NHS sample binding to peptide, which value is less than 2) | - (specific OD450 or cpm of sera sample binding to peptide divided by the specific OD450 or cpm of NHS sample binding to peptide, which value is less than 2) | - (specific OD450 or cpm of sera sample binding to peptide divided by the specific OD450 or cpm of NHS sample binding to peptide, which value is less than 2) | - (specific OD450 or cpm of sera sample binding to peptide divided by the specific OD450 or cpm of NHS sample binding to peptide, which value is less than 2) | Binding of maternal HIV+ serum to peptide (sera/NHS ratio) [2, 19]: - (specific OD450 or cpm of sera sample binding to peptide divided by the specific OD450 or cpm of NHS sample binding to peptide, which value is less than 2); Binding of maternal HIV+ serum to peptide (sera/NHS ratio) [2, 20]: - (specific OD450 or cpm of sera sample binding to peptide divided by the specific OD450 or cpm of NHS sample binding to peptide, which value is less than 2); Binding of maternal HIV+ serum to peptide (sera/NHS ratio) [2, 21]: - (specific OD450 or cpm of sera sample binding to peptide divided by the specific OD450 or cpm of NHS sample binding to peptide, which value is less than 2); Binding of maternal HIV+ serum to peptide (sera/NHS ratio) [2, 22]: - (specific OD450 or cpm of sera sample binding to peptide divided by the specific OD450 or cpm of NHS sample binding to peptide, which value is less than 2)
